The record followed here is publication PMC10906223 (JCI Insight, 2024).

Experiment [1] has as its system isolated islets of donors with T1D. The experiment in a line: Glucagon secretion from isolated islets of donors with T1D. To be noted: for Secretion of glucagon: isolated islets, T1D donors, one value per donor, Figure 2G. It is filed as cell-based, human. Here is the method: (§1) The Integrated Islet Distribution Program provided us human donor islets with their characteristics (Supplemental Table 6). Islets were centrifuged at 500g for 3 minutes, resuspended in CMRL 1066 medium (Gibco, catalog 1150-037) containing 11 mM glucose, and rested in an incubator overnight.
(§2) For the hormone secretion assay, islets or dispersed islet cells were adapted in KRBH buffer containing 11 mM glucose for 1 hour. Then, after 2 washes in HBSS containing 11 mM glucose, islets or cells were treated in the following sequential order in the presence or absence of WCDD301: incubation in KRBH (1 mM glucose, 30 minutes) followed by medium collection, incubation in KRBH (11 mM glucose, 30 minutes) followed by medium collection.

The subject of experiment [2] is human donor dispersed islet cells. The experiment in a line: Somatostatin secretion from non-diabetic human donor dispersed islet cells. It is filed as cell-based. The protocol: Pancreata of nondiabetic C57BL/6J mice were digested using collagenase P (Roche Diagnostics, catalog 11213873001), and islets were manually picked up using a stereomicroscope (ZEISS Stemi 305). […] Isolated mouse islets or provided human islets were dispersed as described ([28]). Briefly, 100–120 islets were washed 2 times using modified HBSS, then dispersed in 600 μL Accutase (Innovative Cell Technologies, catalog AT-104) by gently pipetting up and down for 7 minutes at 37°C. […] Following refreshing of KRBH, cells were dispensed in 8 microfuge tubes (2,000 cells/tube) and treated with WCDD301, preclustered Ephrin-A5 Fc, or preclustered Fc in the presence or absence of the competitive inhibitor of EphA4 receptor, rhyncophylline ([60]) (MilliporeSigma, catalog SML2345). In the presence or absence of these effectors, secretion assay was performed sequentially as shown in Supplemental Table 5. […] Preclustering of Ephrin-A5 Fc was done by mixing Ephrin-A5 Fc or Fc alone (BioLegend, catalog 790102) with anti-Fc antibody (Invitrogen, catalog A16086) (1:10 molar ratio) 20 minutes before treatment ([62]). […] Shedding of cleaved EphA4 was measured from the cell culture medium. Experiments were performed by dispersion of 200 islets, and EphA4 levels in media were measured by EphA4 ELISA (ABclonal, catalog RK06572).
as §1, §2

Experiment [3] concerns diabetic NOD mice. Briefly: Plasma insulin in NOD mice after treatment. To be noted: WCDD301-treated diabetic NOD mice; Figure 6C. It is filed as in vivo, mouse. Here is the method:
Terminal blood was collected into microfuge tubes containing K2-EDTA (supplemented by 45 mM phenylmethylsulphonyl fluoride and 0.77 μM aprotinin) through cardiac puncture. Plasma was separated by centrifugation (2,000g for 10 minutes at 4°C) and kept at –80°C until analysis. Plasma samples with hemolysis were excluded from the study. […] Values of BUN, creatinine, ALB, ALT, and AST were determined by a Roche Cobas C501 Autoanalyzer as performed by the Washington University Diabetes Research Center Translational Diagnostics Core. Reference intervals of blood chemistry parameters for inbred NOD mice were extracted from the Mouse Phenome Database (https://phenome.jax.org/).

The test system of experiment [4] is diabetic NOD mice. Briefly: Insulin tolerance test in NOD mice. It is filed as in vivo, mouse. To be noted: WCDD301 dosing. The text has this: Following a 4-hour fast, nondiabetic placebo-treated (n = 4), diabetic placebo-treated (n = 4), and diabetic WCDD301-treated (n = 4) NOD female mice were intraperitoneally injected with insulin (Humulin-R; 0.75 U/kg, Eli Lilly and Company). […]

Experiment [5] deals with STZ-induced diabetic mice. Briefly: Blood glucose in STZ-induced diabetic mice, once-daily oral WCDD301. Details: Blood glucose: unit: mg/dL. To be noted: for Blood glucose: WCDD301 10 mg/kg oral once daily, 10 mg/kg. It counts as in vivo, mouse. The protocol:
Six cohorts of C57BL/6 mice (n = 10 each, equal numbers of females and males; the Jackson Laboratory) were fasted for 5 hours and injected intraperitoneally with 40 mg/kg STZ solution (MilliporeSigma, catalog 572201) for 5 consecutive days. STZ solution (40 mg/mL) was prepared within 5 minutes before injection using freshly prepared citrate buffer (0.1 M, pH 4.5). Nine days after the last injection, blood glucose levels were measured for 2 consecutive days, and those animals with constant values of 300 ± 20 mg/dL were considered as having early severe hyperglycemia.
We prepared sustained time-release pearls for oral administration in the mouse models. To this end, we combined FDA-approved excipients of Eastman BioSustane SAIB NF (product code: 41271-00, sample distribution from Eastman Company, Kingsport, Tennessee, USA; provided by Phillip Cook) and Agar (Lamda Biotech, catalog C110) at the ratio of 1:1.45 (w/w). We also prepared another type of sustained time-release pearl by mixing SAIB, Agar, and L (-) malic acid (MilliporeSigma, catalog 202-601-5) at the ratio of 1:1.4:0.2 (w/w/w). A homogenous paste mixture was prepared, and pearls were formed with 50–60 mg weight and approximately 2 mm diameter by pinching off the mixture and manually rolling.
We preweighed WCDD301 into microfuge tubes and reconstituted it using deionized water. Using a 10 μL pipette tip, we placed the calculated dose of WCDD301 (at the volume range of 1–1.5 μL) within the center of pearls. WCDD301 was placed into pearls 30–45 minutes before administration. For oral administration of pearls, we designed an applicator using a disposable plastic transfer pipette and syringe plunger lubricated with olive oil. Food intake and body weight in each experimental group (diabetic WCDD301-treated, diabetic placebo-treated, and nondiabetic placebo-treated NOD mice) were monitored daily for 4 weeks. Urine glucose was measured from individually caged NOD mice (nondiabetic placebo treated n = 2, diabetic placebo treated n = 2, and diabetic WCDD301 treated n = 4, 21–23 weeks old) with metabolic cages. Urine glucose was monitored every 24 hours for 10 days by semiquantitative measurements (P-STICKS, Millpledge Veterinary).
We applied the following therapeutic regimens in the fed state for oral dosing of pearls containing WCDD301. The therapeutic regimen for diabetic NOD mice with moderate hyperglycemia (n = 6–9; 6 females/3 males) or nondiabetic ones with blood glucose levels of < 140 mg/dL (females, n = 5) was dose 7.5 mg/kg, dosage once a day, and excipient SAIB-Agar, 50–60 mg. The therapeutic regimen for STZ-induced diabetic mice with early severe hyperglycemia (n = 3, placebo group; n = 4 treatment group, females) was dose 10 mg/kg, dosage once a day, and excipient SAIB-Agar-malic acid, 50–60 mg.

Where “and” joins values, the source holds several entries; their conditions need not be identical. Equal values may be shown once.

Consider `CC(=O)OCC(N)(COC(C)=O)COC(C)=O` [WCDD301, 2-(acetoxymethyl)-2-aminopropane-1,3-diyl diacetate], for which the “Effect on glucagon secretion” value in experiment [1] (islets from donors with long-standing T1D) is recorded as “reduced glucagon secretion”. For the same compound, the Secretion of glucagon was 39.575 and 41.23 in experiment [1] (1 mM glucose); 36.8 and 30.22 in experiment [1] (11 mM glucose). In experiment [2] (1, 3 or 6 hours, Supplemental Figure 4A-C), the “Effect on somatostatin secretion” value is given as “no effect on somatostatin secretion”. For the same compound, the “Somatostatin secretion (Supplemental Figure 4D; quantity not given)” value in experiment [2] (WCDD301) is 1740.7 and 1280.5 and 1500.0. Besides, the Plasma insulin result in experiment [3] is reported as “Undetectable”. Also, the “Blood glucose in insulin tolerance test, Normalize with basal (0 min) (Figure 6E)” value in experiment [4] (15 min) is 0.89 and 0.91 and 0.86 and 0.88; in experiment [4] (30 min), 0.67 and 0.69 and 0.65 and 0.68; in experiment [4] (45 min), 0.67 and 0.74 and 0.62 and 0.66; in experiment [4] (60 min), 0.71 and 0.73 and 0.77 and 0.72; in experiment [4] (90 min) it was 0.7 and 0.8 and 0.75 and 0.96; in experiment [4] (120 min), 0.89 and 0.85 and 0.9 and 0.93. The Effect on hyperglycemia entry in experiment [5] (4-week dosing) is “normalized hyperglycemia”. The Blood glucose was 205 and 210 and 206 and 240 in experiment [5] (Week 1, per mouse, before dosing 277-300, Figure 6F); 180 and 170 and 145 and 210 in experiment [5] (Week 2, per mouse, Figure 6F); 145 and 150 and 135 and 156 in experiment [5] (Week 3, per mouse, Figure 6F); 125 and 119 and 121 and 130 in experiment [5] (Week 4, per mouse, Figure 6F).
